Reference: US20230123334A1, “AMINO LIPID COMPOUND, PREPARATION METHOD THEREFOR, AND APPLICATION THEREOF” (SHENZHEN SHENXIN BIOTECHNOLOGY CO., LTD., priority 2020, published 2023)

System: HEK293 cells
Assay: Preliminary screening as mRNA vectors, EGFP mRNA transfection of HEK293 cells
Type: cell-based
Conditions: EGFP mRNA 50 ng per well, 96-well plates; percentage of GFP fluorescent cells relative to total number of cells (Hoechst)
In short: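 Screening format: EGFP mRNA transfection (50 ng/well) into HEK293 in 10% FBS-supplemented DMEM. Percent green fluorescent cells, normalised to Hoechst nuclear count, gave the value; Lipofectamine2000 was the reference transfectant.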

Compound | Absolute mRNA transfection efficiency in HEK293 cells
CCCCCCCCCCCNc1nc(NCC2CCN(C)CC2)nc(SCCCCCCCCC)n1 [Compound D10S9N11] | 66.0%
CCCCCCCCCCCCNc1nc(NCC2CCN(C)CC2)nc(SCCCCCCCCC)n1 [Compound D10S9N12] | 57.0%
CCCCCCCCCCCCCNc1nc(NCC2CCN(C)CC2)nc(SCCCCCCCCC)n1 [Compound D10S9N13] | 75.8%
CCCCCCCCCCCCCCCNc1nc(NCC2CCN(C)CC2)nc(SCCCCCCCCC)n1 [Compound D10S9N15] | 17.5%
CCCCCCCCCCCCCCCCNc1nc(NCC2CCN(C)CC2)nc(SCCCCCCCCC)n1 [Compound D10S9N16] | 30.2%
CCCCCCCCCCCCCCCCCCNc1nc(NCC2CCN(C)CC2)nc(SCCCCCCCCC)n1 [Compound D10S9N18] | 22.4%
CCCCCCCCCCSc1nc(NCCCCCC)nc(NCC2CCN(C)CC2)n1 [Compound D10S10N6] | 0.5%
CCCCCCCCCCSc1nc(NCCCCCCC)nc(NCC2CCN(C)CC2)n1 [Compound D10S10N7] | 1.0%
CCCCCCCCCCSc1nc(NCCCCCCCC)nc(NCC2CCN(C)CC2)n1 [Compound D10S10N8] | 1.7%
CCCCCCCCCCSc1nc(NCCCCCCCCC)nc(NCC2CCN(C)CC2)n1 [Compound D10S10N9] | 4.2%
CCCCCCCCCCCNc1nc(NCC2CCN(C)CC2)nc(SCCCCCCCCCC)n1 [Compound D10S10N11] | 8.8%
CCCCCCCCCCCCNc1nc(NCC2CCN(C)CC2)nc(SCCCCCCCCCC)n1 [Compound D10S10N12] | 15.5%
CCCCCCCCCCCCCNc1nc(NCC2CCN(C)CC2)nc(SCCCCCCCCCC)n1 [Compound D10S10N13] | 8.5%
CCCCCCCCCCCCCCCNc1nc(NCC2CCN(C)CC2)nc(SCCCCCCCCCC)n1 [Compound D10S10N15] | 13.2%
CCCCCCCCCCCCCCCCNc1nc(NCC2CCN(C)CC2)nc(SCCCCCCCCCC)n1 [Compound D10S10N16] | 15.4%
CCCCCCCCCCCCCCCCCCNc1nc(NCC2CCN(C)CC2)nc(SCCCCCCCCCC)n1 [Compound D10S10N18] | 6.0%
CCCCCCCCCCCSc1nc(NCCCCCC)nc(NCC2CCN(C)CC2)n1 [Compound D10S11N6] | 6.8%
CCCCCCCCCCCSc1nc(NCCCCCCC)nc(NCC2CCN(C)CC2)n1 [Compound D10S11N7] | 18.2%
CCCCCCCCCCCSc1nc(NCCCCCCCC)nc(NCC2CCN(C)CC2)n1 [Compound D10S11N8] | 46.1%
CCCCCCCCCCCSc1nc(NCCCCCCCCC)nc(NCC2CCN(C)CC2)n1 [Compound D10S11N9] | 87.7%
CCCCCCCCCCCNc1nc(NCC2CCN(C)CC2)nc(SCCCCCCCCCCC)n1 [Compound D10S11N11] | 27.7%
CCCCCCCCCCCCNc1nc(NCC2CCN(C)CC2)nc(SCCCCCCCCCCC)n1 [Compound D10S11N12] | 24.7%
CCCCCCCCCCCCCNc1nc(NCC2CCN(C)CC2)nc(SCCCCCCCCCCC)n1 [Compound D10S11N13] | 10.4%
CCCCCCCCCCCCCCCNc1nc(NCC2CCN(C)CC2)nc(SCCCCCCCCCCC)n1 [Compound D10S11N15] | 18.6%
